Measurements as given in US11046716B2, “Beta-lactamase inhibitors” (priority 2015, dated 2021).

How the values were obtained:
[1] = system: E. cloacae expressing the Class C P99; assay: Broth microdilution MIC assay with ceftazidime, E. cloacae P99; format: cell-based; conditions: Fixed CAZ (ceftazidime) 4 μg/mL; E. cl. 144200 p99 AmpC
Summary of the method: (§1)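 Visual MIC readout of the test compound after 16-20 hours at 37° C, measured in the presence of a constant 4 μg/ml β-lactam. Compound concentrations spanned 16 to 0.125 μg/mL in 2-fold steps in cation-adjusted Mueller Hinton broth.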

[2] = system: P. aeruginosa expressing the Class B carbapenemase VIM-2; assay: Broth microdilution MIC assay with meropenem, P. aeruginosa VIM-2; format: cell-based; conditions: Fixed Mero (meropenem) 4 μg/mL; P. aerug. 2775 VIM-2
Summary of the method: as §1

[3] = system: K. pneumoniae expressing the Class A carbapenemase KPC-2; assay: Broth microdilution MIC assay with meropenem, K. pneumoniae KPC-2; format: cell-based; conditions: Fixed Mero (meropenem) 4 μg/mL; K. p. 156319 KPC-3
Summary of the method: as §1

[4] = molecular target: T1, VIM-2 (Escherichia coli, UniProt Q5U7L7); assay: β-lactamase enzyme inhibition assay, VIM-2 (nitrocefin substrate); format: biochemical; conditions: Class B; nitrocefin substrate, 486 nm; read-out: VIM-2
T1 construct: made in house; host or cells: E. coli BL21(DE3)
Summary of the method: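 Nitrocefin hydrolysis, read at 486 nm over 10 min, served as the measure of VIM-2 activity. The enzyme had been incubated with compound for 15 min at 37 °C before 100 μM substrate was added, and IC50 values were fitted from percent inhibition of the initial rate.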

[5] = molecular target: OXA-48 (UniProt Q6XEC0); assay: β-lactamase enzyme inhibition assay, Class D oxacillinase; format: biochemical; conditions: read-out: OXA-48
[6] = system: K. pneumoniae expressing the class A carbapenemase KPC-2 and the class B carbapenemase VIM-4; assay: Broth microdilution MIC assay with meropenem, K. pneumoniae KPC-2 and VIM-4; format: cell-based; conditions: Fixed Mero (meropenem) 4 μg/mL; K. p. A-1797 KPC-2 VIM-4
Summary of the method: as §1

[7] = system: K. pneumoniae producing the Class D carbapenemase OXA-48; assay: Broth microdilution MIC assay with meropenem, K. pneumoniae OXA-48; format: cell-based; conditions: Fixed Mero (meropenem) 4 μg/mL; K. p. 11978 OXA-48
Summary of the method: as §1

[8] = molecular target: T2, SHV-5 (Klebsiella pneumoniae, UniProt P0A3M1); assay: β-lactamase enzyme inhibition assay, SHV-5 (cefotaxime substrate); format: biochemical
T2 construct: made in house; host or cells: E. coli BL21(DE3)
Summary of the method: (§2)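 Native untagged enzymes expressed in E. coli BL21(DE3), purified by cation exchange and gel filtration. Inhibitor preincubated with enzyme 15 min at 37 °C; hydrolysis followed by absorbance: imipenem at 300 nm for KPC-2, cefotaxime at 260 nm for SHV-5. IC50 as concentration halving initial hydrolysis rate versus inhibitor-free wells.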

[9] = molecular target: T3, KPC-2 (Klebsiella pneumoniae, UniProt Q9F663); assay: β-lactamase enzyme inhibition assay, KPC-2 (imipenem substrate); format: biochemical; conditions: Class A; imipenem substrate, 300 nm; read-out: KPC-2
T3 construct: made in house; host or cells: E. coli BL21(DE3)
Summary of the method: as §2

[10] = system: E. coli expressing the Class A Extended Spectrum Beta-Lactamase (ESBL) CTX-M-15; assay: Broth microdilution MIC assay with ceftazidime, E. coli CTX-M-15; format: cell-based; conditions: Fixed CAZ (ceftazidime) 4 μg/mL; E. coli ESBL4 CTX-M-15
Summary of the method: as §1

[11] = molecular target: T4, AmpC (Enterobacter cloacae, UniProt P05364); assay: β-lactamase enzyme inhibition assay, p99 AmpC (nitrocefin substrate); format: biochemical
T4 construct: made in house; host or cells: E. coli BL21(DE3)
Summary of the method: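 Native untagged enzymes expressed in E. coli BL21(DE3), purified by cation exchange and gel filtration. Inhibitor preincubated with enzyme 15 min at 37 °C; hydrolysis followed by absorbance. IC50 as concentration halving initial hydrolysis rate versus inhibitor-free wells.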

T3 sequence (Q9F663 25-293, looked up): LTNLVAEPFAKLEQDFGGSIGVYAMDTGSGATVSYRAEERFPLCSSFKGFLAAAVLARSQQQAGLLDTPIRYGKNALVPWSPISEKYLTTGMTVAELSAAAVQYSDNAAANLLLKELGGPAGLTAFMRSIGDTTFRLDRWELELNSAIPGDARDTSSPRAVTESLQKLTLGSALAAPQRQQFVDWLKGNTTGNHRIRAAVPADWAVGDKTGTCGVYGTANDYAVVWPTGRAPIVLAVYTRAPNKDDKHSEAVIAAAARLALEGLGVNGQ
T4 sequence (P05364 21-381): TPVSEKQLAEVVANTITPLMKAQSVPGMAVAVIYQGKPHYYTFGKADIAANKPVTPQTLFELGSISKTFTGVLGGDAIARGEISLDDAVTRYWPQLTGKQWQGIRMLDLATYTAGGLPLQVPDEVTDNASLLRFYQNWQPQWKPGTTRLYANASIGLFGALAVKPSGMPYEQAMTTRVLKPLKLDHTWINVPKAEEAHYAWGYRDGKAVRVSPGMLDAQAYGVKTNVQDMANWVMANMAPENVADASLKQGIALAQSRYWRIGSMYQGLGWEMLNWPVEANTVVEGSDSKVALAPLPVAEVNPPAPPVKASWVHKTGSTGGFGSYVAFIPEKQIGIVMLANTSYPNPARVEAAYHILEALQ
T2 sequence (P0A3M1 22-286): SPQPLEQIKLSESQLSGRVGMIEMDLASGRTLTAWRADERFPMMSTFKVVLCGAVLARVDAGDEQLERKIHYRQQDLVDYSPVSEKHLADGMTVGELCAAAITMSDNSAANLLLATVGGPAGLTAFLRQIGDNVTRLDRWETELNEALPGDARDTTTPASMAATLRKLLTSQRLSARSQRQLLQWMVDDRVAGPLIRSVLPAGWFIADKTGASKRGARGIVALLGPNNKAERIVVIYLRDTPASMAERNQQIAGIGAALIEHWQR

Row | SMILES | MIC (μg/mL) of Exemplary Compounds in presence of fixed β-lactams: E. cl. 144200 p99 AmpC [1] | MIC (μg/mL) of Exemplary Compounds in presence of fixed β-lactams: P. aerug. 2775 VIM-2 [2] | MIC (μg/mL) of Exemplary Compounds in presence of fixed β-lactams: K. p. 156319 KPC-3 [3] | IC50 [4] [nM] | IC50 [5] [nM] | MIC (μg/mL) of Exemplary Compounds in presence of fixed β-lactams: K. p. A-1797 KPC-2 VIM-4 [6] | MIC (μg/mL) of Exemplary Compounds in presence of fixed β-lactams: K. p. 11978 OXA-48 [7] | IC50 [8] [nM] | IC50 [9] [nM] | MIC (μg/mL) of Exemplary Compounds in presence of fixed β-lactams: E. coli ESBL4 CTX-M-15 [10] | IC50 [11] [nM]
1 | N=C(N)NCCCn1nnnc1CC(=O)N[C@H]1Cc2cccc(C(=O)O)c2OB1O [Example 53, (R)-3-(2-(1-(3-guanidinopropyl)-1H-tetrazol-5-yl)acetamido)-2-hydroxy-3,4-dihydro-2H-benzo[e][1,2]oxaborinine-8-carboxylic acid] | C (C represents an MIC of <1 μg/mL) | C (C represents an MIC of <1 μg/mL) | C (C represents an MIC of <1 μg/mL) | < 100 | 1000 to 10000 | C (C represents an MIC of <1 μg/mL) | B (B represents an MIC between 1 and 16 μg/mL inclusive) | < 100 | < 100 | C (C represents an MIC of <1 μg/mL) | < 100
2 | NCc1nnn(CC(=O)N[C@H]2Cc3cccc(C(=O)O)c3OB2O)c1I [Example 105, (R)-3-(2-(4-(aminomethyl)-5-iodo-1H-1,2,3-triazol-1-yl)acetamido)-2-hydroxy-3,4-dihydro-2H-benzo[e][1,2]oxaborinine-8-carboxylic acid] | C (C represents an MIC of <1 μg/mL) | C (C represents an MIC of <1 μg/mL) | C (C represents an MIC of <1 μg/mL) | < 100 | < 100 | C (C represents an MIC of <1 μg/mL) | C (C represents an MIC of <1 μg/mL) | 100 to 1000 | < 100 | C (C represents an MIC of <1 μg/mL) | < 100
